The record followed here is PubChem BioAssay (NCI).

Common to all, as to assay: NCI-60 cell line screen, 48 h
Assay [1] deals with MALME-3M melanoma.
For assay [2], the system named is SF-295 CNS.
Assay [3] concerns NCI-H522 lung.
Assay [4] concerns U251 CNS.
The subject of assay [5] is HCT-116 colon.
The test system of assay [6] is LOX IMVI melanoma.
Assay [7] concerns OVCAR-3 ovarian.
The test system of assay [8] is COLO 205 colon.
Assay [9] has as its system 786-0 renal.
Assay [10] concerns OVCAR-4 ovarian.

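All cell lines were grown in 96-well plates and treated with compound for 48 hours. At the GI50, growth is halved. TGI is the concentration that stops growth completely.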 Where only a bound is given, the exact number is not on record here.

Consider `Cc1ccc(C)c2c1C(=O)N(c1ccc(F)cc1F)C2=O`, for which the GI50 is greater than 100 µM in assay [1]; greater than 100 µM in [2]; greater than 100 µM in [3]; 89.3 µM in [4]; greater than 100 µM in assay [5]; greater than 100 µM in assay [6]. Besides, the GI50 in assay [7], in assay [8], in assay [9] and in assay [10] was greater than 100 µM throughout. Also, the TGI in [1], in [2], in [3], in assay [4], in assay [5] and in assay [6] was greater than 100 µM throughout. In addition, the TGI in assay [7], in assay [8], in [9] and in assay [10] was greater than 100 µM in each case.

With `O=C(COc1ccccc1Cl)N1N=C(c2ccccc2)CC1(O)c1ccccc1` (stereo not given), the TGI was 31.7 µM in assay [1]; 34.8 µM in assay [2]; greater than 100 µM in assay [3]; 23.9 µM in assay [4]; 51.3 µM in [5]; 30.4 µM in assay [6]. Further, the TGI in assay [7] was found to be 33.6 µM; in [8], 33.9 µM; in assay [9], 31 µM; in assay [10] it was 23.4 µM.

As for `COc1ccc(Nc2nc3cc(C(F)(F)F)ccc3nc2-c2ccccc2)cc1OC`, the TGI in assay [1] was 85.8 µM; in [2] it was 53.3 µM; in assay [3], greater than 100 µM; in [4] it was greater than 100 µM; in assay [5] it was greater than 100 µM; in assay [6] it was greater than 100 µM. For the same molecule, the TGI in assay [7], in assay [8], in [9] and in assay [10] was greater than 100 µM in each case.

In the case of `CCc1ccccc1NC(=O)C(C#N)C1=C(Cl)C(=O)c2ccccc2C1=O` (stereo not given), the TGI in assay [1] came out at 19.5 µM; in assay [2] it was 52.6 µM; in assay [3], 29.7 µM; in assay [4], 29.8 µM; in assay [5] it was 28.8 µM; in assay [6], 26.9 µM. The TGI is greater than 100 µM in [7], 31.1 µM in assay [8], 31.4 µM in assay [9] and 27.6 µM in [10].

Consider `O=C(O)CCCCn1ccc(=O)[nH]c1=O`, for which the TGI in [1], in [2], in assay [3], in assay [4], in [5] and in [6] was greater than 100 µM in each case. Also, the TGI in assay [7], in assay [8], in [9] and in assay [10] was greater than 100 µM in each case.

Consider `CC(c1cc(Cl)ccc1O)c1cc(Cl)ccc1O`, for which the GI50 in assay [1] was 4.61 µM; in assay [2], 2.3 µM; in [3], 2.24 µM; in assay [4], 3.93 µM; in assay [5], 3.38 µM; in [6], 3.97 µM. Further, the GI50 in assay [7] was 3.62 µM; in [8] it was 17.6 µM; in [9], 15.7 µM; in assay [10], 5.24 µM. In addition, the TGI worked out at 22.7 µM in assay [1]; 7.83 µM in assay [2]; 5.24 µM in assay [3]; 14.5 µM in assay [4]; 10.3 µM in assay [5]; 17.1 µM in [6]. Further, the TGI in [7] is 13 µM; in [8], 33.5 µM; in assay [9], 36.1 µM; in [10], 22.8 µM.

Consider `O=C([O][Hg][c]1ccccc1)c1ccccc1`, for which the GI50 in assay [1] is 1.77 µM; in [2], 12.2 µM; in assay [3] it was 0.275 µM; in assay [4], 1.38 µM; in assay [5], 1.45 µM; in assay [6] it was 1.38 µM. The GI50 was 0.298 µM in [7], 1.89 µM in [8], 1.81 µM in assay [9] and 1.36 µM in assay [10]. Further, the TGI in [1] was 3.39 µM; in [2] it was 25.5 µM; in [3], 0.754 µM; in assay [4], 2.8 µM; in assay [5], 2.99 µM; in [6] it was 3.05 µM. The TGI was 0.843 µM in [7], 3.35 µM in assay [8], 3.5 µM in assay [9] and 6.22 µM in assay [10].

Consider `CCn1c(-c2nonc2N)nc2c(C#CC(C)(C)O)ncc(OC3CCNCC3)c21`, for which the GI50 in [1] was greater than 25 µM; in assay [2], 9.09 µM; in assay [3], 4.42 µM; in assay [4], 3.74 µM; in assay [5], 8.15 µM; in [6], 8.5 µM. Moreover, the GI50 in assay [7] is 5.38 µM; in [8], 4.89 µM; in [9], 6.79 µM; in assay [10], 14.1 µM. Besides, the TGI in assay [1] was greater than 25 µM; in assay [2] it was greater than 25 µM; in [3], 8.82 µM; in assay [4], greater than 25 µM; in assay [5] it was greater than 25 µM; in assay [6], greater than 25 µM. Also, the TGI is 17.3 µM in [7], greater than 21.9 µM in assay [8], greater than 25 µM in assay [9] and greater than 25 µM in assay [10].

As for `Cc1ccc(-c2nc3nc(-c4ccc(F)cc4)nc(N4CCNCC4)c3o2)cc1`, the GI50 was 6.94 µM in [1]; 18.3 µM in [2]; 2.18 µM in assay [3]; 1.95 µM in [4]; 1.7 µM in [5]; 1.66 µM in assay [6]. In addition, the GI50 in assay [7] was 1.86 µM; in [8] it was 2.1 µM; in assay [9] it was 1.76 µM; in assay [10], 1.89 µM. Also, the TGI in assay [1] came to 19.6 µM; in assay [2], 33.9 µM; in assay [3], 6.19 µM; in [4], 4.03 µM; in assay [5] it was 3.32 µM; in [6], 3.07 µM. Further, the TGI in [7] is 3.5 µM; in [8] it was 4.64 µM; in assay [9] it was 3.34 µM; in assay [10] it was 3.5 µM.

For `Cc1ccccc1C1=C(c2cn(C)c3ccccc23)C(=O)NC1=O`, the GI50 in [1] was 23.9 µM; in assay [2], 14.7 µM; in assay [3] it was greater than 22.6 µM; in assay [4], 13.2 µM; in assay [5], 7.77 µM; in assay [6], 14.9 µM. The GI50 in assay [7] was 10.8 µM; in assay [8] it was 9.01 µM; in assay [9], greater than 25 µM; in assay [10], greater than 21.1 µM. Also, the TGI in [1], in [2], in assay [3], in assay [4], in assay [5] and in [6] was greater than 25 µM each time. Also, the TGI in assay [7], in [8], in [9] and in assay [10] was greater than 25 µM in each case.

In the case of `ClCCCSSCCCCl`, the TGI in assay [1] was greater than 100 µM; in [2], greater than 100 µM; in assay [3], 65.6 µM; in assay [4], greater than 100 µM; in assay [5] it was greater than 90.8 µM; in assay [6], greater than 81.9 µM. For the same molecule, the TGI was 97.1 µM in assay [7], greater than 72.5 µM in [8], greater than 100 µM in [9] and greater than 90.7 µM in assay [10].

Regarding `CC(=O)OCC12CN(C#N)C3C4COC(CC41)C1(C(=O)N(C)c4ccccc41)C32` (stereo not given), the TGI was 54.1 µM in assay [1]; greater than 100 µM in assay [2]; 24.7 µM in assay [3]; greater than 100 µM in [4]; 40.7 µM in [5]; 49.1 µM in [6]. Further, the TGI in assay [7] is 14.7 µM; in assay [8], 35.8 µM; in [9], greater than 100 µM; in [10] it was 49.6 µM.

With `Fc1cc(F)c(F)c(S)c1F`, the TGI is greater than 100 µM in [1]; greater than 100 µM in assay [2]; 37.8 µM in assay [3]; greater than 100 µM in [4]; greater than 100 µM in [5]; greater than 100 µM in assay [6]. Moreover, the TGI in [7], in [8], in assay [9] and in assay [10] was greater than 100 µM each time.

Consider `O=C(/C=C/C12c3ccccc3C(c3ccccc31)C1C(=O)N(c3ccc(Cl)cc3)C(=O)C12)c1ccccn1` (stereo not given), for which the GI50 was 0.242 µM in assay [1]; 0.379 µM in [2]; 0.26 µM in assay [3]; 0.256 µM in assay [4]; 0.183 µM in [5]; 0.177 µM in assay [6]. For the same molecule, the GI50 in [7] was 0.224 µM; in assay [8], 0.49 µM; in assay [9], 0.194 µM; in assay [10], 0.478 µM. Further, the TGI in [1] worked out at 0.639 µM; in assay [2], 2.03 µM; in assay [3], 1.01 µM; in assay [4], 0.74 µM; in assay [5], 0.423 µM; in assay [6], 0.358 µM. For the same molecule, the TGI in assay [7] is 0.52 µM; in [8], 1.13 µM; in [9], 0.398 µM; in assay [10], greater than 30.9 µM.

As for `N#CC(C#N)=CNCCN1CCN(C=C(C#N)C#N)CC1`, the TGI in [1], in assay [2], in assay [3], in assay [4], in assay [5] and in assay [6] was greater than 100 µM in each case. The TGI in assay [7], in assay [8], in [9] and in [10] was greater than 100 µM each time.

Consider `CNC(=O)c1nn(C)c2c1C(C)(C)Cc1cnc(Nc3cccc(N4CCN(C)CC4)c3)nc1-2`, for which the GI50 in assay [1] is 0.223 µM; in assay [2], 0.332 µM; in assay [3], 0.554 µM; in assay [4] it was 0.291 µM; in assay [5], 0.176 µM; in assay [6], 0.178 µM. The GI50 in assay [7] is 0.505 µM; in [8] it was 0.239 µM; in [9], 0.398 µM; in assay [10] it was 0.409 µM. Also, the TGI in assay [1] worked out at 5.59 µM; in [2], 6.84 µM; in assay [3] it was 11.1 µM; in [4], 12.8 µM; in assay [5] it was 31.2 µM; in assay [6], 2.53 µM. The TGI in assay [7] amounted to 13.4 µM; in assay [8] it was 1.59 µM; in assay [9], 14.1 µM; in [10], 44.3 µM.

On to `COc1ccc(-c2cc(/C=C3\C(=O)Nc4cc(Cl)ccc43)[nH]n2)cc1`, for which the GI50 was 6.23 µM in assay [1]; 2.68 µM in [2]; 1.88 µM in [3]; 3.46 µM in assay [4]; 3.63 µM in [5]; 4.36 µM in assay [6]. For the same molecule, the GI50 in assay [7] is 2.59 µM; in [8] it was 2.06 µM; in assay [9] it was 9.71 µM; in assay [10], 6.79 µM. Also, the TGI in assay [1] is greater than 100 µM; in assay [2], 12.2 µM; in [3], 6.77 µM; in assay [4], 25.8 µM; in assay [5] it was greater than 100 µM; in assay [6], greater than 100 µM. Further, the TGI is 8.48 µM in assay [7], 5.51 µM in assay [8], greater than 100 µM in [9] and 94.1 µM in assay [10].

With `COC(=O)C1=COC2OC3C(C(C)O)C(=O)OC34C=CC1C24` (stereo not given), the TGI in assay [1] is greater than 100 µM; in [2] it was greater than 100 µM; in [3], 30.5 µM; in assay [4], greater than 100 µM; in assay [5] it was greater than 100 µM; in [6], greater than 100 µM. In addition, the TGI in assay [7], in assay [8], in assay [9] and in assay [10] was greater than 100 µM each time.

Regarding `Cc1cc(=O)[nH]c(CNC(=O)c2ccc3ccccc3c2)n1`, the TGI in [1], in [2], in assay [3], in [4], in assay [5] and in [6] was greater than 100 µM each time. Further, the TGI in assay [7], in assay [8], in assay [9] and in [10] was greater than 100 µM each time.
